From patent US12279621B1, “Insect neuropeptides 3” (Solasta Bio Limited, priority 2023, dated 2025)

Test system: Spodoptera frugiperda
Assay: Lepidoptera artificial diet assay
Type: in vivo
Conditions: unformulated peptide, final concentration 1×10^−4 M in diet, one L1 larva per cell, n=10, 168 hrs; compared to negative control vehicle and DDT
Description: One larva was assayed per cell. (n=10). Frontier Lepidoptera artificial diet was made up by preparing agar at 1% and then mixing it with artificial diet powder. Peptide solution was aliquoted in 10 cells and diet poured straight onto it. The final concentration of the peptide was 1×10^−4 M, and each peptide was aliquoted in 10 cells. Once the diet solidified and cooled down, one L1 larvae was infested in each cell. The trays were sealed with heat and let larva were allowed to develop for 168 hrs. Finally, pupation and mortality were scored for. Lepidoptera artificial diet assays were performed with SB-P-80, and compared to a negative control vehicle and the insecticide dichlorodiphenyltrichloroethane (DDT).

Substance: [Hy]-NADEDQQQSVDFTPRL-[NH2] (H-NADEDQQQSVDFTPRL-NH2) [SB-P-80, pyrokinin peptide according to the invention]
- activity (pupation and mortality scored) in lepidoptera artificial diet assay: much higher activity
